# Measured values taken from patent US6737383B1, “Herbicidal oxadiazolidines” (priority 1999, dated 2004).
# Key:
# bedstraw = assay: Test B pre/postemergence bedstraw; format: in vivo, Galium aparine
# Source text: (§1) Seeds of bedstraw (Galium aparine), blackgrass (Alopecurus myosuroides), surinam grass (Brachiaria decumbens), cocklebur (Xanthium strumarium), corn (Zea mays), crabgrass (Digitaria sanguinalis), giant foxtail (Setaria faberii), morningglory (Ipomoea hederacea), pigweed (Amaranthus retroflexus), rape (Brassica napus), soybean (Glycine max), sugar beet (Beta vulgaris), velvetleaf (Abutilon theophrasti), wheat (Triticum aestivum), wild oat (Avena fatua) and purple nutsedge (Cyperus rotundus) tubers were planted and treated preemnergence with test chemicals formulated in a non-phytotoxic solvent mixture which included a surfactant.
# (§2) At the same time, these crop and weed species were also treated with postemergence applications of test chemicals formulated in the same manner. Plants ranged in height from 2 to 18 cm (1- to 4-leaf stage) for postemergence treatments. Plant species in the flood test consisted of rice (Oryza sativa), smallflower flatsedge (Cyperus difformis), duck salad (Heteranthera limosa) and bamyardgrass (Echinochloa crus-galli) grown to the 2-leaf stage for testing. Treated plants and controls were maintained in a greenhouse for twelve to sixteen days, after which all species were compared to controls and visually evaluated. Plant response ratings, summarized in Table B, are based on a scale of 0 to 10 where 0 is no effect and 10 is complete control. A dash (−) response means no test result.
# blackgrass = assay: Test B pre/postemergence blackgrass; format: in vivo, Alopecurus myosuroides
# Source text: as §1, §2
# surinam grass = assay: Test B pre/postemergence surinam grass; format: in vivo, Brachiaria decumbens
# Source text: as §1, §2
# cocklebur = assay: Test B pre/postemergence cocklebur; format: in vivo, Xanthium strumarium
# Source text: as §1, §2
# corn = assay: Test B pre/postemergence corn; format: in vivo, Zea mays
# Source text: as §1, §2
# crabgrass = assay: Test B pre/postemergence crabgrass; format: in vivo, Digitaria sanguinalis
# Source text: as §1, §2
# giant foxtail = assay: Test B pre/postemergence giant foxtail; format: in vivo, Setaria faberii
# Source text: as §1, §2
# morningglory = assay: Test B pre/postemergence morningglory; format: in vivo, Ipomoea hederacea
# Source text: as §1, §2
# pigweed = assay: Test B pre/postemergence pigweed; format: in vivo, Amaranthus retroflexus
# Source text: as §1, §2
# rape = assay: Test B pre/postemergence rape; format: in vivo, Brassica napus
# Source text: as §1, §2
# soybean = assay: Test B pre/postemergence soybean; format: in vivo, Glycine max
# Source text: as §1, §2
# sugar beet = assay: Test B pre/postemergence sugar beet; format: in vivo, Beta vulgaris
# Source text: as §1, §2
# velvetleaf = assay: Test B pre/postemergence velvetleaf; format: in vivo, Abutilon theophrasti
# Source text: as §1, §2
# wheat = assay: Test B pre/postemergence wheat; format: in vivo, Triticum aestivum
# Source text: as §1, §2
# wild oat = assay: Test B pre/postemergence wild oat; format: in vivo, Avena fatua
# Source text: as §1, §2
# purple nutsedge = assay: Test B pre/postemergence purple nutsedge; format: in vivo, Cyperus rotundus
# Source text: as §1, §2
# [1] = Postemergence, Rate 125 g/ha, scale of 0 to 10 where 0 is no effect and 10 is complete control
# [2] = Preemergence, Rate 62 g/ha, scale 0 to 10 (0 no effect, 10 complete control)
# [3] = Preemergence, Rate 125 g/ha, 0 is no effect, 10 is complete control
# [4] = Preemergence, Rate 250 g/ha, scale 0 to 10, 0 is no effect, 10 is complete control
# [5] = Preemergence, Rate 500 g/ha, scale 0 to 10 (0 no effect, 10 complete control)
# [6] = Rate 62 g/ha, Postemergence, scale of 0 to 10 where 0 is no effect and 10 is complete control
# [7] = Rate 250 g/ha, Postemergence, scale 0 to 10, 0 is no effect, 10 is complete control
# [8] = Rate 500 g/ha, Postemergence, scale 0 to 10
compound,measurement,setting,value
CC(C)N(C(=O)n1oc(=O)n(C(C)c2ccccc2)c1=O)c1ccc(F)cc1 (stereo not shown) [Compound 134],Bedstraw plant response rating,bedstraw; [1],4
same,Bedstraw plant response rating,bedstraw; [2],0
same,Bedstraw plant response rating (0 to 10 scale),bedstraw; [3],0
same,Bedstraw plant response rating,bedstraw; [4],0
same,Bedstraw plant response rating,bedstraw; [5],3
same,Bedstraw plant response rating,bedstraw; [6],4
same,"Plant response rating, Bedstraw",bedstraw; [7],4
same,Blackgrass plant response rating,blackgrass; [1],0
same,Blackgrass plant response rating,blackgrass; [2],0
same,Blackgrass plant response rating (0 to 10 scale),blackgrass; [3],0
same,Blackgrass plant response rating,blackgrass; [4],2
same,Blackgrass plant response rating,blackgrass; [5],2
same,Blackgrass plant response rating,blackgrass; [6],0
same,"Plant response rating, Blackgrass",blackgrass; [7],0
same,Blackgrass plant response rating,blackgrass; [8],7
same,B. signalgrass plant response rating,surinam grass; [1],0
same,B. signalgrass plant response rating,surinam grass; [2],0
same,B. signalgrass plant response rating (0 to 10 scale),surinam grass; [3],2
same,B. signalgrass plant response rating,surinam grass; [4],6
same,B. signalgrass plant response rating,surinam grass; [5],8
same,B. signalgrass plant response rating,surinam grass; [6],0
same,"Plant response rating, B. signalgrass",surinam grass; [7],0
same,B. signalgrass plant response rating,"surinam grass; Rate 500 g/ha, Postemergence, scale of 0 to 10 where 0 is no effect and 10 is complete control",2
same,Cocklebur plant response rating,cocklebur; [1],0
same,Cocklebur plant response rating,cocklebur; [2],0
same,Cocklebur plant response rating (0 to 10 scale),cocklebur; [3],0
same,Cocklebur plant response rating,cocklebur; [4],0
same,Cocklebur plant response rating,cocklebur; [5],0
same,Cocklebur plant response rating,cocklebur; [6],0
same,"Plant response rating, Cocklebur",cocklebur; [7],0
same,Cocklebur plant response rating,cocklebur; [8],1
same,Corn plant response rating,corn; [1],0
same,Corn plant response rating,corn; [2],0
same,Corn plant response rating (0 to 10 scale),corn; [3],0
same,Corn plant response rating,corn; [4],0
same,Corn plant response rating,corn; [5],0
same,Corn plant response rating,corn; [6],0
same,"Plant response rating, Corn",corn; [7],0
same,Corn plant response rating,corn; [8],0
same,Crabgrass plant response rating,crabgrass; [1],0
same,Crabgrass plant response rating,crabgrass; [2],2
same,Crabgrass plant response rating (0 to 10 scale),crabgrass; [3],6
same,Crabgrass plant response rating,crabgrass; [4],9
same,Crabgrass plant response rating,crabgrass; [5],9
same,Crabgrass plant response rating,crabgrass; [6],0
same,"Plant response rating, Crabgrass",crabgrass; [7],4
same,Crabgrass plant response rating,crabgrass; [8],9
same,Giant foxtail plant response rating,giant foxtail; [1],0
same,Giant foxtail plant response rating,giant foxtail; [2],6
same,Giant foxtail plant response rating (0 to 10 scale),giant foxtail; [3],9
same,Giant foxtail plant response rating,giant foxtail; [4],10
same,Giant foxtail plant response rating,giant foxtail; [5],10
same,Giant foxtail plant response rating,giant foxtail; [6],0
same,"Plant response rating, Giant foxtail",giant foxtail; [7],0
same,Giant foxtail plant response rating,giant foxtail; [8],3
same,Morningglory plant response rating,morningglory; [1],6
same,Morningglory plant response rating,morningglory; [2],0
same,Morningglory plant response rating (0 to 10 scale),morningglory; [3],0
same,Morningglory plant response rating,morningglory; [4],0
same,Morningglory plant response rating,morningglory; [5],1
same,Morningglory plant response rating,morningglory; [6],5
same,"Plant response rating, Morningglory",morningglory; [7],8
same,Morningglory plant response rating,morningglory; [8],8
same,Redroot pigweed plant response rating,pigweed; [1],0
same,Redroot pigweed plant response rating,pigweed; [2],0
same,Redroot pigweed plant response rating (0 to 10 scale),pigweed; [3],0
same,Redroot pigweed plant response rating,pigweed; [4],0
same,Redroot pigweed plant response rating,pigweed; [5],2
same,Redroot pigweed plant response rating,pigweed; [6],0
same,"Plant response rating, Redroot pigweed",pigweed; [7],0
same,Redroot pigweed plant response rating,pigweed; [8],0
same,Rape plant response rating,rape; [1],0
same,Rape plant response rating,rape; [2],0
same,Rape plant response rating (0 to 10 scale),rape; [3],0
same,Rape plant response rating,rape; [4],0
same,Rape plant response rating,rape; [5],6
same,Rape plant response rating,rape; [6],0
same,"Plant response rating, Rape",rape; [7],0
same,Rape plant response rating,rape; [8],0
same,Soybean plant response rating,soybean; [1],1
same,Soybean plant response rating,soybean; [2],0
same,Soybean plant response rating (0 to 10 scale),soybean; [3],0
same,Soybean plant response rating,soybean; [4],0
same,Soybean plant response rating,soybean; [5],0
same,Soybean plant response rating,soybean; [6],1
same,"Plant response rating, Soybean",soybean; [7],1
same,Soybean plant response rating,soybean; [8],1
same,Sugarbeets plant response rating,sugar beet; [1],0
same,Sugarbeets plant response rating,sugar beet; [2],0
same,Sugarbeets plant response rating (0 to 10 scale),sugar beet; [3],2
same,Sugarbeets plant response rating,sugar beet; [4],4
same,Sugarbeets plant response rating,sugar beet; [5],7
same,Sugarbeets plant response rating,sugar beet; [6],0
same,"Plant response rating, Sugarbeets",sugar beet; [7],0
same,Sugarbeets plant response rating,sugar beet; [8],2
same,Velvetleaf plant response rating,velvetleaf; [1],0
same,Velvetleaf plant response rating,velvetleaf; [2],0
same,Velvetleaf plant response rating (0 to 10 scale),velvetleaf; [3],0
same,Velvetleaf plant response rating,velvetleaf; [4],2
same,Velvetleaf plant response rating,velvetleaf; [5],7
same,Velvetleaf plant response rating,velvetleaf; [6],0
same,"Plant response rating, Velvetleaf",velvetleaf; [7],0
same,Velvetleaf plant response rating,velvetleaf; [8],4
same,Wheat plant response rating,wheat; [1],0
same,Wheat plant response rating,wheat; [2],0
same,Wheat plant response rating (0 to 10 scale),wheat; [3],0
same,Wheat plant response rating,wheat; [4],0
same,Wheat plant response rating,wheat; [5],0
same,Wheat plant response rating,wheat; [6],0
same,"Plant response rating, Wheat",wheat; [7],0
same,Wheat plant response rating,wheat; [8],0
same,Wild oats plant response rating,wild oat; [1],0
same,Wild oats plant response rating,wild oat; [2],0
same,Wild oats plant response rating (0 to 10 scale),wild oat; [3],0
same,Wild oats plant response rating,wild oat; [4],2
same,Wild oats plant response rating,wild oat; [5],2
same,Wild oats plant response rating,wild oat; [6],0
same,"Plant response rating, Wild oats",wild oat; [7],0
same,Wild oats plant response rating,wild oat; [8],0
same,Nutsedge plant response rating,purple nutsedge; [1],0
same,Nutsedge plant response rating,purple nutsedge; [2],0
same,Nutsedge plant response rating (0 to 10 scale),purple nutsedge; [3],0
same,Nutsedge plant response rating,purple nutsedge; [4],0
same,Nutsedge plant response rating,purple nutsedge; [5],0
same,Nutsedge plant response rating,purple nutsedge; [6],0
same,"Plant response rating, Nutsedge",purple nutsedge; [7],0
same,Nutsedge plant response rating,purple nutsedge; [8],0
